Results reported in patent US20240208895A1, “BRANCHED-CHAIN AMINO ACID DERIVATIVES TO TREAT DISEASE” (INTRABIO LTD., priority 2021, published 2024).

How the values were obtained:
PepT1 = target: T1, PepT1 (Homo sapiens, UniProt P46059); assay: PepT1 transporter-mediated cellular uptake (substrate test); format: cell-based; conditions: uptake 3 min, 37° C.
T1 construct: expressed in transfected cells
T1 sequence (P46059 1-708): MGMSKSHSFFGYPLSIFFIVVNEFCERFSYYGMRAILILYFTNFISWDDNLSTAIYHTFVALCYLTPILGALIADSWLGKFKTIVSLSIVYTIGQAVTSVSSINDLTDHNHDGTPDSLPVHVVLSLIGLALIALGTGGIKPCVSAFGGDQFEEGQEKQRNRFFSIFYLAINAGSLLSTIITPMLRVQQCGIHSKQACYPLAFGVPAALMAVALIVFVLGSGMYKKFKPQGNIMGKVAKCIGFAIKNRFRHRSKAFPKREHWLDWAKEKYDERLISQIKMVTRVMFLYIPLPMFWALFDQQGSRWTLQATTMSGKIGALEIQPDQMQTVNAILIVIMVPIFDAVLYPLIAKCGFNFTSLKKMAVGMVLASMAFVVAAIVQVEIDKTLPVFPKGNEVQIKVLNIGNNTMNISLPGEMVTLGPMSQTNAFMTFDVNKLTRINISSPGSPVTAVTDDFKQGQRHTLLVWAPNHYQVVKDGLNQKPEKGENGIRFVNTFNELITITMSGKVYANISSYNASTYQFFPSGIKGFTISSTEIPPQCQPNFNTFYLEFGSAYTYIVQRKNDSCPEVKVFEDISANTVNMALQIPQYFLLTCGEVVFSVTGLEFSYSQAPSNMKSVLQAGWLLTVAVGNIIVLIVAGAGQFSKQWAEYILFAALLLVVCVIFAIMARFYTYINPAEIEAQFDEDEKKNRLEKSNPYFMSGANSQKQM
Method: (§1) DMSO (0.5%) was the solvent control (SC) and the known inhibitor for the positive control (PC) was losartan (200 μM). Data were fit to either the Michaelis-Menten equation for uptake or the Hill equation for inhibition using the solvent control to define the top and the positive control inhibitor to define the bottom. Symbols represent the mean±SEM, n=3.
(§2) Human OAT1 (SLC22A6) and OAT3 (SLC22A8) overexpressing HEK-293 cells and control cells without transfected transporter (Corning® TransportoCells™) are plated to 24-well plates and cellular uptake of 10 to 100 μg/mL of a Compound of the Disclosure is measured in the absence and presence of transporter inhibitors. Uptake of a Compound of the Disclosure into control cells is measured only without chemical inhibitors. […] Cells are grown in DMEM (Gibco 4196, high glucose, without sodium pyruvate) supplemented with MEM non-essential amino acids and 10% fetal bovine serum. Cells are re-fed with fresh medium after attachment (4-6 hours post-seeding). Cell are plated at a density of 4×10^5/well in 24-well plates coated with poly-D-lysine. Transporter assays are conducted in 400 μL of HBSS supplemented with 10 mM Hepes, pH 7.4
The known probe substrates used as positive controls are 3 μM chlorothiazide for OAT1, 2 μM estrone-3-sulfate for OAT3, 10 μM gabapentin for LAT1, 50 μM Gly-Sar for PepT1, 500 μM thiophene-2-glyoxylic acid for MCT1. […]

OAT1 (SLC22A6) [1] = target: T2, OAT1 (SLC22A6) (Homo sapiens, UniProt Q4U2R8); assay: OAT1 transporter-mediated cellular uptake (substrate test); format: cell-based; conditions: uptake 5 min, 37° C.
T2 construct: host or cells: HEK-293
T2 sequence (Q4U2R8 1-563): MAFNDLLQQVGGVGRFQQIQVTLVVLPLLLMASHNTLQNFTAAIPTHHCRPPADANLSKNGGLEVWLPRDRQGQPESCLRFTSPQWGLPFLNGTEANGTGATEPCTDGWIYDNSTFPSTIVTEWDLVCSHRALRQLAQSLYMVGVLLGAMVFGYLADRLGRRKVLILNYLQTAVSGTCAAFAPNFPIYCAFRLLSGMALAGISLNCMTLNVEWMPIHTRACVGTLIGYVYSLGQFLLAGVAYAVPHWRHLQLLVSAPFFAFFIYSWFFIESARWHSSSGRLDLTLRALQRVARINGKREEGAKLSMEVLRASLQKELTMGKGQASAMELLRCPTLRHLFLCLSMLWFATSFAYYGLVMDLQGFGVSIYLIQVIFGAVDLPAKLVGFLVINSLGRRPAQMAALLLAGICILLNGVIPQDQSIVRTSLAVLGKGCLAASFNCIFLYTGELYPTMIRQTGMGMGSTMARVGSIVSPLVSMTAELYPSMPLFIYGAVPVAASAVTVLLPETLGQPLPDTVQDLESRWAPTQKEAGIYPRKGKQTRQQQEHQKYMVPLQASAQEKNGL
Method: as §1, with “inhibitor diclofenac (100 μM) was” for “inhibitor for”, “control (PC).” for “control (PC) was losartan (200 μM).”, “the Michalis-Menten” for “the Michaelis-Menten”
as §2, with “7.4 […]” for “7.4”
Enzyme kinetic data for uptake and metabolism of a Compound of the Disclosure is analysed by fitting the Michaelis-Menten equation to the data. […]

OAT1 (SLC22A6) [2] = target: T2, OAT1 (SLC22A6); assay: Inhibition of OAT1 uptake of known substrate chlorothiazide; format: cell-based; conditions: probe substrate chlorothiazide 3 μM
Method: as §1, with “inhibitor diclofenac (100 μM) was” for “inhibitor for”, “control (PC).” for “control (PC) was losartan (200 μM).”, “the Michalis-Menten” for “the Michaelis-Menten”
as §2, with “7.4 […]” for “7.4”
The IC50 value for the test item is determined by fitting the Hill equation in the following form: […]

physchem = format: physicochemical
Text: The physiochemical parameters of L-leucine were compared with N-acetyl-L-leucine. […] Log P is the octanol:water partition coefficient for the neutral form of a compound. In contrast, log D considers the ionization state of a molecule in aqueous (biological) solution resulting from basic groups gaining a proton and acidic groups losing a proton, and as such is better correlated with passive diffusion across membranes.

substrate of PepT1 (uptake) (PepT1): not a substrate
substrate of OAT1 (uptake) (OAT1 (SLC22A6) [1]): substrate
IC50 (OAT1 (SLC22A6) [2]): 6.2 mM
logD (physchem): -2.54
SMILES: CC(=O)N[C@@H](CC(C)C)C(=O)O [N-acetyl-L-leucine]
